This is an account of results in patent US9656959B2, “Substituted pyridines as sodium channel blockers” (Purdue Pharma L.P., priority 2010, dated 2017).

One test addresses human Nav1.7 (Homo sapiens (Human), UniProt Q15858). The test is described as follows: FLIPR or FLIPR TETRA sodium dye assay with KCl and test article pre-incubation. The format is cell-based. To be noted: recombinant Nav1.7/HEK293 cells; CoroNa Green sodium dye; veratridine + scorpion venom agonists; ± SEM.
The target in another test is hNav1.7 (Homo sapiens (Human), UniProt Q15858). The test is described as follows: Electrophysiology (EP) assay, whole-cell patch clamp. The class given is cell-based. To be noted: hNav1.7 HEK-293 cells; for Ki: affinity for the inactivated state of the channel, read-out: Nav1.7 Activity (μM) EP assay Ki; for Kd: resting block dissociation constant, read-out: Nav1.7 Activity (μM) EP assay Kr. How it is done:
The hNav1.7 expressing HEK-293 cells were plated on 35 mm culture dishes pre-coated with poly-D-lysine in standard DMEM culture media (Mediatech, Inc., Herndon, Va.) and incubated in a 5% CO2 incubator at 37° C. Cultured cells were used approximately 12-48 hours after plating.
On the day of experimentation, the 35 mm dish was placed on the stage of an inverted microscope equipped with a perfusion system that continuously perfuses the culture dish with fresh recording media. A gravity driven superfusion system was used to apply test solutions directly to the cell under evaluation. This system consists of an array of glass pipette connected to a motorized horizontal translator. The outlet of the shooter was positioned approximately 100 μm from the cell of interest.
Whole cell currents were recorded using the whole-cell patch clamp configuration using an Axopatch 200B amplifier (Axon Instruments, Foster City Calif.), 1322A A/D converter (Axon Instruments) and pClamp software (v. 8; Axon Instruments) and stored on a personal computer. Gigaseals were formed and the whole-cell configuration was established in voltage clamp mode, and membrane currents generated by hNav1.7 were recorded in gap-free mode. Borosilicate glass pipettes have resistance values between 1.5 and 2.0 MΩ when filled with pipette solution and series resistance (<5 MΩ) was compensated 75-80%. Signals were sampled at 50 kHz and low pass filtered at 3 kHz.
After establishing the whole-cell configuration in voltage clamp mode, voltage protocols were run to establish the 1) test potential, 2) holding potential, and 3) the conditioning potential for each cell.
After establishing the whole-cell configuration in voltage clamp mode, a standard I-V protocol was run to determine the potential at which the maximal current (Imax) is elicited. This potential was the test potential (Vt). […] This protocol also permitted determination of the holding potential at which all channels are in the resting state.
For compounds causing significant retardation of recovery from inactivation, an estimate of the affinity for the inactivated state of the channel (Ki) was generated using the following protocol. From the negative, no residual inactivation, holding potential, the cell was depolarized to the conditioning voltage for 2-5 seconds, returned to the negative holding potential for 10-20 ms to relieve fast inactivation and then depolarized to the test potential for ˜15 ms. This voltage protocol was repeated every 10-15 seconds, first to establish a baseline in the absence of the test compound, then in the presence of the test compound.
After a stable baseline was established, the test compound was applied and block of the current elicited by the test pulse assessed. In some cases, multiple cumulative concentrations were applied to identify a concentration that blocked between 40-60% of this current. Washout of the compound was attempted by superfusing with control solution once steady-state block was observed. An estimate of the K, was calculated as follows: Ki=[drug]*{FR/(1−FR)}, Eq. 1
where [drug] is the concentration of a drug, and FR=I(after drug)/I(control), Eq. 2 where I is the peak current amplitude. If multiple concentrations were used, Ki was determined from the fit of a logistic equation to FRs plotted against corresponding drug concentrations.
In the alternative, the voltage clamp protocol to examine hNav1.7 currents was as follows. First, the standard current-voltage relationship was tested by pulsing the cell from the holding voltage (Vh) of −120 mV by a series of 5 msec long square-shaped test pulses incrementing in +10 mV steps over the membrane voltage range of −90 mV to +60 mV at the pace of stimulation of 0.5 Hz. This procedure determines the voltage that elicits the maximal current (Vmax). […]

Sequence of human Nav1.7 (Q15858 with tags, fused parts or gaps limits assumed): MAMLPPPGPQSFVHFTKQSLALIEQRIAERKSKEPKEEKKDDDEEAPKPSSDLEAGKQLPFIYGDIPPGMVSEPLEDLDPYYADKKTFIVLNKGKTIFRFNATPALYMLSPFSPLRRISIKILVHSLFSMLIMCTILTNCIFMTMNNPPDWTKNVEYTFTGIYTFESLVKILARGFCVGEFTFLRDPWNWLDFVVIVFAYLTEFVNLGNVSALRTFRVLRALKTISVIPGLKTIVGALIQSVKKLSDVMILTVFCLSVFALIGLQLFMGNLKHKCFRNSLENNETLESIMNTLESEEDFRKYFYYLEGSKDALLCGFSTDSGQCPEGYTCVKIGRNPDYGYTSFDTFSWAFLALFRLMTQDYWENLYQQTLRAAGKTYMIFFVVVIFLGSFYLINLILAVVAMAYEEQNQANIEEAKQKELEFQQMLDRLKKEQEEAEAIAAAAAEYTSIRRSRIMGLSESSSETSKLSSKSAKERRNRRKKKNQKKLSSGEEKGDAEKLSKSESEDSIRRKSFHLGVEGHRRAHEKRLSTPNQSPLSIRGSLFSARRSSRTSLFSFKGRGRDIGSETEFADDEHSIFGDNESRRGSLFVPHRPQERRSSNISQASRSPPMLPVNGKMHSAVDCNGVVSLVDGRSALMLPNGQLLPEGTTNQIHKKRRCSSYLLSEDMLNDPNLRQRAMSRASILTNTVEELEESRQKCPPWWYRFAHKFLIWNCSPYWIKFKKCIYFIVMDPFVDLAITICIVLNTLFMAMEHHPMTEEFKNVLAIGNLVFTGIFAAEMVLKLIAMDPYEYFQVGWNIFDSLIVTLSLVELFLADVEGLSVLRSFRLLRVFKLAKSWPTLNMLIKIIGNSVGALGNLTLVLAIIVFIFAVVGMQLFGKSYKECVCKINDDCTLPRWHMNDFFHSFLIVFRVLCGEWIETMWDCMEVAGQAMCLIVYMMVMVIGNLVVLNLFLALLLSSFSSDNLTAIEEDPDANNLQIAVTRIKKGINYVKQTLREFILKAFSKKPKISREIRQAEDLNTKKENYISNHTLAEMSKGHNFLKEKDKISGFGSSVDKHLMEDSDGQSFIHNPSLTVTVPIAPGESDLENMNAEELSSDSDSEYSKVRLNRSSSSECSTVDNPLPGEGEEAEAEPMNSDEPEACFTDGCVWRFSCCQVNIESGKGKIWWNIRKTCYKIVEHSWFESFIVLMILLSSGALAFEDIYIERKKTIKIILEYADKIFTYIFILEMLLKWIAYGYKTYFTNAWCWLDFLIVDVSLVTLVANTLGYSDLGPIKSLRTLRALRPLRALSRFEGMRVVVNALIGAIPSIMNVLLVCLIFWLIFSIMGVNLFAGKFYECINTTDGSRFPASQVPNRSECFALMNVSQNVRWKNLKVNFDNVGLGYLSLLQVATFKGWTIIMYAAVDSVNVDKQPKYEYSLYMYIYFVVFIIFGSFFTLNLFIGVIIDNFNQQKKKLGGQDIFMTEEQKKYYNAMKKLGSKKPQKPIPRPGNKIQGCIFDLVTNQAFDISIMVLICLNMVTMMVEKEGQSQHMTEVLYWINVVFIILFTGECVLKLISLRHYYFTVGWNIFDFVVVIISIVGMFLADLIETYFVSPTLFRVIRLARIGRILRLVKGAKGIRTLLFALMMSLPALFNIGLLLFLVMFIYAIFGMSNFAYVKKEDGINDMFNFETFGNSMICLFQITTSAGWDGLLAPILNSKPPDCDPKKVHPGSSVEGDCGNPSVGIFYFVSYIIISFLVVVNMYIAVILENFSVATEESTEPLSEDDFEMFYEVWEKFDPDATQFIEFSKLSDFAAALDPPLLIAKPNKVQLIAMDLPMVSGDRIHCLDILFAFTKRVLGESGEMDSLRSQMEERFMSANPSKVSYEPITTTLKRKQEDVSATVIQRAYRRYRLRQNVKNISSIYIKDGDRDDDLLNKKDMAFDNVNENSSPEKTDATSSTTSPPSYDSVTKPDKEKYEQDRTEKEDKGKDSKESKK
Sequence of hNav1.7 (Q15858 other isoform, or with tags, fused parts or gaps): as the sequence (Q15858 with tags, fused parts or gaps limits assumed) above

On to `O=C(CO)N[C@@H](CO)C(=O)Nc1cccc(-c2ccc(Oc3ccc(F)cc3)cc2)n1` [Compound 60, (S)-N-{6-[4-(4-Fluoro-phenoxy)-phenyl]-pyridin-2-yl}-3-hydroxy-2-(2-hydroxy-acetylamino)-propionamide], for which the IC50 on human Nav1.7 was 0.46 ± 0.08 µM. Moreover, on hNav1.7, the Ki is 0.113 ± 0.05 µM and the Kd came out at 4.94 ± 0.81 µM.

As for `O=C1NCCN1CCNc1cc([C@H](O)CO)cc(-c2ccc(Oc3ccc(F)cc3)cc2)n1` [Compound 66, (S)-1-(2-((4-(1,2-dihydroxyethyl)-6-(4-(4-fluorophenoxy)phenyl)pyridin-2-yl)amino)ethyl)imidazolidin-2-one], the half-maximal inhibitory concentration (IC50) at human Nav1.7 was 5 ± 0.88 µM. Moreover, the Ki on hNav1.7 worked out at 1.37 ± 0.17 µM.

As for `N[C@@H](CO)C(=O)Nc1cccc(-c2ccc(Oc3ccc(F)cc3)cc2)n1` [Compound 70, (S)-2-Amino-N-{6-[4-(4-fluoro-phenoxy)-phenyl]-pridin-2-yl}-3-hydroxy-propionamide], the IC50 on human Nav1.7 came to 0.27 ± 0.032 µM. Further, on hNav1.7, the Ki was determined as 0.046 µM and the Kd came to 0.803 ± 0.2 µM.

For `O=C(Nc1cccc(-c2ccc(Oc3ccc(F)cc3)cc2)n1)C(O)CO` (centres unmarked) [Compound 72, N-(6-(4-(4-fluorophenoxy)phenyl)pyridin-2-yl)-2,3-dihydroxypropanamide], the IC50 on human Nav1.7 is 0.074 µM. Also, on hNav1.7, the Ki worked out at 0.143 ± 0.03 µM and the Kd amounted to 8.91 ± 1.21 µM.
